This note sets out measurements from PubChem BioAssay AID651642 (Sanford-Burnham Center for Chemical Genomics, 2012).

Structures are written as SMILES.

The test system of one test is H9c2. As to the kind of experiment: cardiomyocyte survival under oxidative or metabolic stress – cell-based, panel, H9c2 and HL-1, H2O2, 2-deoxyglucose, ATP luminescence, SAR follow-up (AID 651642).
Another test deals with HL-1. Described as above.
The mark [1] stands for this setting: H9c2/HL-1 cardiomyocyte 2-deoxyglucose damage, mean of runs, with 2-deoxyglucose, mean IC50 across panel.
Where [2] appears, read: H9c2/HL-1 cardiomyocyte 2-deoxyglucose damage, run 1, with 2-deoxyglucose.
Setting [3] is: H9c2/HL-1 cardiomyocyte 2-deoxyglucose damage, run 2, with 2-deoxyglucose.
[4] abbreviates: H9c2/HL-1 cardiomyocyte 2-deoxyglucose damage, run 3, with 2-deoxyglucose.
[5] abbreviates: H9c2/HL-1 cardiomyocyte 2-deoxyglucose damage, run 4, with 2-deoxyglucose.
[6] abbreviates: H9c2/HL-1 cardiomyocyte H2O2 oxidative damage, run 1, with H2O2.
Setting [7] is: H9c2/HL-1 cardiomyocyte H2O2 oxidative damage, run 2, with H2O2.
Setting [8] is: H9c2/HL-1 cardiomyocyte H2O2 oxidative damage, run 3, with H2O2.
Where [9] appears, read: H9c2/HL-1 cardiomyocyte H2O2 oxidative damage, run 4, with H2O2.
[10] abbreviates: H9c2/HL-1 cardiomyocyte H2O2 oxidative damage, mean of runs, with H2O2, mean IC50 across panel.

As a reminder, the IC50 is the concentration needed to halve the response being measured. A high value points to a need for much substance. Turning to `COc1cc(-c2cc(C(=O)Nc3cccc(C(C)=O)c3)c3ccc(Cl)cc3n2)cc(OC)c1OC`, the IC50 in the test on H9c2 (setting [1]) is > 79 µM; with H9c2 (setting [2]), > 79 µM; in the test on H9c2 (setting [3]), > 79 µM; in the test with H9c2 (setting [4]), > 79 µM; in the test on H9c2 (setting [5]), > 79 µM; in the test on H9c2 (setting [6]) it was 3.39 µM. Further, the IC50 is 3.79 µM with H9c2 (setting [7]); > 79 µM in the test with H9c2 (setting [8]); > 79 µM in the test on H9c2 (setting [9]); > 79 µM in the test with HL-1 (setting [1]); > 79 µM with HL-1 (setting [2]); > 79 µM with HL-1 (setting [3]). For the same compound, the IC50 is > 79 µM in the test with HL-1 (setting [4]); > 79 µM with HL-1 (setting [5]); 2.26 µM in the test with HL-1 (setting [10]); 3.07 µM with HL-1 (setting [6]); 3.46 µM in the test on HL-1 (setting [7]); 0.875 µM in the test with HL-1 (setting [8]). In the test with HL-1 (setting [9]), this compound came in with an IC50 of 1.65 µM.
As to `COc1ccc2c(c1OC)C(=O)N1c3ccccc3C(=O)N(Cc3ccc(C)cc3C)C21` (stereo not drawn), the IC50 with H9c2 (setting [1]), with H9c2 (setting [2]), with H9c2 (setting [3]), in the test on H9c2 (setting [4]), with H9c2 (setting [5]) and in the test on H9c2 (setting [10]) was > 79 µM throughout. Also, the IC50 in the test with H9c2 (setting [6]), in the test on H9c2 (setting [7]), with H9c2 (setting [8]), with H9c2 (setting [9]), in the test with HL-1 (setting [1]) and with HL-1 (setting [2]) was > 79 µM in each case. The IC50 in the test on HL-1 (setting [3]), in the test with HL-1 (setting [4]), with HL-1 (setting [5]), in the test on HL-1 (setting [6]), in the test on HL-1 (setting [7]) and in the test on HL-1 (setting [8]) was > 79 µM each time. For the same compound, in the test on HL-1 (setting [9]), the IC50 was > 79 µM.
In the case of `COc1ccc2c(c1OC)C(=O)N1c3ccccc3C(=O)N(Cc3cccc(Br)c3)C21` (stereo not drawn), the IC50 in the test with H9c2 (setting [1]) was > 79 µM; with H9c2 (setting [2]), > 79 µM; with H9c2 (setting [3]) it was > 79 µM; with H9c2 (setting [4]), > 79 µM; with H9c2 (setting [5]), > 79 µM; in the test with H9c2 (setting [6]), 2.22 µM. Also, the IC50 with H9c2 (setting [7]) is 3.79 µM; in the test on H9c2 (setting [8]) it was > 79 µM; in the test on H9c2 (setting [9]), > 79 µM; in the test with HL-1 (setting [1]) it was 7.49 µM; with HL-1 (setting [2]) it was 5.07 µM; with HL-1 (setting [3]), 5.69 µM. In addition, the IC50 was 7.9 µM in the test on HL-1 (setting [4]); 11.3 µM in the test with HL-1 (setting [5]); > 79 µM with HL-1 (setting [10]); > 79 µM in the test with HL-1 (setting [6]); > 79 µM with HL-1 (setting [7]); > 79 µM in the test on HL-1 (setting [8]). For the same compound, the IC50 with HL-1 (setting [9]) was > 79 µM.
Turning to `CCOC(=O)c1cccc(NC(=O)c2cc(-c3cc(OC)c(OC)c(OC)c3)nc3c(Cl)cccc23)c1`, the IC50 with H9c2 (setting [1]), with H9c2 (setting [2]), with H9c2 (setting [3]), in the test on H9c2 (setting [4]), in the test with H9c2 (setting [5]) and with H9c2 (setting [6]) was > 79 µM each time. The IC50 with H9c2 (setting [7]) was 30.3 µM; in the test on H9c2 (setting [8]) it was > 79 µM; in the test with H9c2 (setting [9]), > 79 µM; in the test on HL-1 (setting [1]) it was > 79 µM; with HL-1 (setting [2]) it was > 79 µM; in the test on HL-1 (setting [3]), > 79 µM. Further, the IC50 with HL-1 (setting [4]) is > 79 µM; in the test with HL-1 (setting [5]) it was > 79 µM; in the test on HL-1 (setting [6]), > 79 µM; with HL-1 (setting [7]) it was 11.1 µM; with HL-1 (setting [8]) it was > 79 µM; in the test on HL-1 (setting [9]), > 79 µM.
For `COc1ccc2c(c1OC)C(=O)N1c3ccccc3C(=O)N(Cc3cccc(Cl)c3Cl)C21` (stereo not drawn), the IC50 in the test on H9c2 (setting [1]) was 8.9 µM; with H9c2 (setting [2]), 9.42 µM; in the test on H9c2 (setting [3]), 12.2 µM; in the test with H9c2 (setting [4]), 6.65 µM; with H9c2 (setting [5]), 7.38 µM; in the test with H9c2 (setting [6]), 0.447 µM. The IC50 in the test with H9c2 (setting [7]) is 0.739 µM; in the test on H9c2 (setting [8]), > 79 µM; with H9c2 (setting [9]), > 79 µM; with HL-1 (setting [1]) it was 1.48 µM; in the test on HL-1 (setting [2]), 0.792 µM; in the test on HL-1 (setting [3]), 0.807 µM. In addition, the IC50 with HL-1 (setting [4]) is 1.98 µM; in the test with HL-1 (setting [5]), 2.35 µM; with HL-1 (setting [10]), > 79 µM; with HL-1 (setting [6]) it was > 79 µM; in the test with HL-1 (setting [7]) it was > 79 µM; in the test with HL-1 (setting [8]) it was > 79 µM. The IC50 in the test on HL-1 (setting [9]) is > 79 µM.
Turning to `COc1cc(-c2cc(C(=O)NCC(=O)O)c3ccccc3n2)cc(OC)c1OC`, the IC50 with H9c2 (setting [1]), in the test on H9c2 (setting [2]), with H9c2 (setting [3]), with H9c2 (setting [4]), with H9c2 (setting [5]) and in the test with H9c2 (setting [6]) was > 79 µM in each case. Also, the IC50 in the test with H9c2 (setting [7]), in the test on H9c2 (setting [8]), with H9c2 (setting [9]), in the test with HL-1 (setting [1]), in the test with HL-1 (setting [2]) and in the test with HL-1 (setting [3]) was > 79 µM each time. The IC50 in the test with HL-1 (setting [4]), with HL-1 (setting [5]), with HL-1 (setting [10]), in the test with HL-1 (setting [6]), in the test with HL-1 (setting [7]) and with HL-1 (setting [8]) was > 79 µM in each case. In addition, in the test on HL-1 (setting [9]), the IC50 was > 79 µM.
